# Measured values from US20140066431A1, “Benzoxazepines as Inhibitors of PI3K/mTOR and Methods of Their Use and Manufacture” (Exelixis, Inc., priority 2010, published 2014).
# Molecular target: PI3Kα (Homo sapiens, UniProt P42336)
# Experiment: PI3K biochemical assay (ATP consumption, luciferase-luciferin)
# Details: 1.5 nM enzyme, 1 μM ATP, 10 μM PIP2
# Procedure: PI3Kα activity is measured as the percent of ATP consumed following the kinase reaction using luciferase-luciferin-coupled chemiluminescence. Reactions were conducted in 384-well white, medium binding microtiter plates (Greiner). Kinase reactions were initiated by combining test compounds, ATP, substrate (PIP2), and kinase in a 20 μL volume in a buffer solution. The standard PI3Kalpha assay buffer is composed 50 mM Tris, pH 7.5, 1 mM EGTA, 10 mM MgCl2, 1 mM DTT and 0.03% CHAPS. The standard assay concentrations for enzyme, ATP, and substrate are 1.5 nM, 1 μM, and 10 μM, respectively. The reaction mixture was incubated at ambient temperature for approximately 2 h. Following the kinase reaction, a 10 μL aliquot of luciferase-luciferin mix (Promega Kinase-Glo) was added and the chemiluminescence signal measured using a Victor2 plate reader (Perkin Elmer). Total ATP consumption was limited to 40-60% and IC50 values of control compounds correlate well with literature references. Substituting PI3Kα with PI3Kβ, PI3Kγ, or PI3Kδ, the inhibitory activity of the compounds for the other isoforms of I3K were measured.
# Sequence of PI3Kα (P42336 whole entry): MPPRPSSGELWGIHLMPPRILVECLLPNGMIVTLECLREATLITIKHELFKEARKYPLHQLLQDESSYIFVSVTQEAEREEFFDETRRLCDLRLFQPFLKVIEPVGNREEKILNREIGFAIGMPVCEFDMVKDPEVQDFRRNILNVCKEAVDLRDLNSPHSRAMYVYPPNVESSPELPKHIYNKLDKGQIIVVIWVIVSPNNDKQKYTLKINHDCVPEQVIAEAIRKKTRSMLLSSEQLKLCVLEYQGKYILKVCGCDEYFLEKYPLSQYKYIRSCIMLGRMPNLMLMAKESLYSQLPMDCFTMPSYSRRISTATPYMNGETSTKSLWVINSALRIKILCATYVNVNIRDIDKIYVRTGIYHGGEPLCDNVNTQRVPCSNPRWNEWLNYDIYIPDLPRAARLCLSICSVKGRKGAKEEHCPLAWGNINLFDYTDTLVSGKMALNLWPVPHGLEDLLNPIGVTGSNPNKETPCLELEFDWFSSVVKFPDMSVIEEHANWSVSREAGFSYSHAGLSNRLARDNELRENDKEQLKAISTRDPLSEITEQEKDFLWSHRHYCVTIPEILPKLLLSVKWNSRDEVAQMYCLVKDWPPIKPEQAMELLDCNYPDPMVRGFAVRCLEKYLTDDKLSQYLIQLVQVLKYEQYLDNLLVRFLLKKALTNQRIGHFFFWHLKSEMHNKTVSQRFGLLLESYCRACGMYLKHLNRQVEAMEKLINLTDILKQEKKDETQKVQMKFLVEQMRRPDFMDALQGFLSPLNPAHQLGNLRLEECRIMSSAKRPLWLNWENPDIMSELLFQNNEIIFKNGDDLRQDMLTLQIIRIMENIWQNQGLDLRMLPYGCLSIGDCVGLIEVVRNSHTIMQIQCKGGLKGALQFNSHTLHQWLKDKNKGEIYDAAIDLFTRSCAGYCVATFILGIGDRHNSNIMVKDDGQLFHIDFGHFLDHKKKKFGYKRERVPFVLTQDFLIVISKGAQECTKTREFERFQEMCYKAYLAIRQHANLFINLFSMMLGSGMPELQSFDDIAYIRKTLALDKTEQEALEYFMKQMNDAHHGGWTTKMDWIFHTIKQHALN
# Sequence of PI3Kα (P27986 whole entry partner): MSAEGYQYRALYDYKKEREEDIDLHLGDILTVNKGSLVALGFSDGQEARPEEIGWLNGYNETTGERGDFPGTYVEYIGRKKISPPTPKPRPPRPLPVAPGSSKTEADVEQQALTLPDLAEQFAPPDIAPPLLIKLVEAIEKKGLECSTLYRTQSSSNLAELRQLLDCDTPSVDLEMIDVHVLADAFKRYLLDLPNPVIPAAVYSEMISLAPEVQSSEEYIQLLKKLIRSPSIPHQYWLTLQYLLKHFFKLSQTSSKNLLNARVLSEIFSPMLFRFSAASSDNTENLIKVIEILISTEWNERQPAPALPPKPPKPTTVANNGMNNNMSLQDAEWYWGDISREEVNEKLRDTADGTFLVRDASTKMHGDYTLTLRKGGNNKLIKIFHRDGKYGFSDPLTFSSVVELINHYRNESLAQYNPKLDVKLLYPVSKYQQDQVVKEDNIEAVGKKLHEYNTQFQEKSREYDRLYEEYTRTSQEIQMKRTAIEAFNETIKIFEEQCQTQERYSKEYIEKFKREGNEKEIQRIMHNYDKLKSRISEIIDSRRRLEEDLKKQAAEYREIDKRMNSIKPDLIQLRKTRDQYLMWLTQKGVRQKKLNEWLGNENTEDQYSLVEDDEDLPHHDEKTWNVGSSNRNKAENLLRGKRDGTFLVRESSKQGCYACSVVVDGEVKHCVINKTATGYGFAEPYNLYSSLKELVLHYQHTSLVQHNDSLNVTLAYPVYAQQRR
row,SMILES,IC50 (PI3Kα biochemical assay)
1,"CC1CCN(C(=O)N2CCOc3ccc(-c4cc(N)[nH]n4)cc3C2)CC1 [compound 10, 3-{4-[(4-methylpiperidin-1-yl)carbonyl]-2,3,4,5-tetrahydro-1,4-benzoxazepin-7-yl}-1H-pyrazol-5-amine]",not active
2,"Cc1nc2ccc(-c3ccc4c(c3)CN(C(=O)N3CCCCC3c3ccc(F)cc3C)CCO4)cc2[nH]1 (stereo not shown) [compound 117, 4-{[2-(4-fluoro-2-methylphenyl)piperidin-1-yl]carbonyl}-7-(2-methyl-1H-benzimidazol-6-yl)-2,3,4,5-tetrahydro-1,4-benzoxazepine]",not active
3,"CC1CCN(C(=O)N2CCOc3ccc(-c4cnc(N)cn4)cc3C2)CC1 [compound 4, 5-{4-[(4-methylpiperidin-1-yl)carbonyl]-2,3,4,5-tetrahydro-1,4-benzoxazepin-7-yl}pyrazin-2-amine]",not active
4,"Cc1nc2ccc(-c3ccc4c(c3)CN(C(=O)N3CCN(Cc5c(F)cccc5Cl)CC3)CCO4)cc2[nH]1 [compound 152, 4-({4-[(2-chloro-6-fluoropheny)methyl]piperazin-1-yl}carbonyl)-7-(2-methyl-1H-benzimidazol-6-yl)-2,3,4,5-tetrahydro-1,4-benzoxazepine]",not active
5,"Cc1nc2ccc(-c3ccc4c(c3)CN(C(=O)N3[C@@H]5CC[C@H]3C[C@@H](N)C5)CCO4)cc2[nH]1 [compound 77, 8-{[7-(2-methyl-1H-benzimidazol-6-yl)-2,3-dihydro-1,4-benzoxazepin-4(5H)-yl]carbonyl}-8-azabicyclo[3.2.1]octan-3-(endo)-amine]",not active
6,Cc1nc2ccc(-c3ccc4c(c3)CN(C(=O)N3CCC(Cc5ccccc5)CC3)CCO4)cc2[nH]1 [compound 171],not active
7,"CC1CCN(C(=O)N2CCOc3ccc(-c4ccc(N)nn4)cc3C2)CC1 [compound 1, 6-{4-[(4-methylpiperidin-1-yl)carbonyl]-2,3,4,5-tetrahydro-1,4-benzoxazepin-7-yl}pyridazin-3-amine]",not active
8,"Cc1nc2ccc(-c3ccc4c(c3)CN(C(=O)N3CCCCC3Cc3ccccc3)CCO4)cc2[nH]1 (stereo not shown) [compound 104, 7-(2-methyl-1H-benzimidazol-6-yl)-4-{[2-(phenylmethyl)piperidin-1-yl]carbonyl}-2,3,4,5-tetrahydro-1,4-benzoxazepine]",not active
9,"Cc1nc2ccc(-c3ccc4c(c3)CN(C(=O)N3CCCC[C@H]3c3ccccc3)CCO4)cc2[nH]1 [compound 65, 7-(2-methyl-1H-benzimidazol-6-yl)-4-{[(2S)-2-phenylpiperidin-1-yl]carbonyl}-2,3,4,5-tetrahydro-1,4-benzoxazepine]",not active

# Next, values leading:
row,IC50 (PI3Kα biochemical assay),SMILES
1,not active,"Cc1nc2ccc(-c3ccc4c(c3)CN(C(=O)N3CCCCC3c3ccccc3C)CCO4)cc2[nH]1 (stereo not shown) [compound 126, 7-(2-methyl-1H-benzimidazol-6-yl)-4-{[2-(2-methylphenyl)piperidin-1-yl]carbonyl}-2,3,4,5-tetrahydro-1,4-benzoxazepine]"
2,not active,"Cc1nc2ccc(-c3ccc4c(c3)CN(C(=O)N3CCN(C)C(=O)C3)CCO4)cc2[nH]1 [compound 146, 1-methyl-4-{[7-(2-methyl-1H-benzimidazol-6-yl)-2,3-dihydro-1,4-benzoxazepin-4(5H)-yl]carbonyl}piperazin-2-one]"
3,not active,"Cc1nc2ccc(-c3ccc4c(c3)CN(C(=O)N3CCN(c5ccccc5F)CC3)CCO4)cc2[nH]1 [compound 165, 4-{[4-(2-fluorophenyl)piperazin-1-yl]carbonyl}-7-(2-methyl-1H-benzimidazol-6-yl)-2,3,4,5-tetrahydro-1,4-benzoxazepine]"
4,not active,"Cc1nc2ccc(-c3ccc4c(c3)CN(C(=O)N3CCC(O)(c5ccc(C(F)(F)F)cc5)CC3)CCO4)cc2[nH]1 [compound 141, 1-{[7-(2-methyl-1H-benzimidazol-6-yl)-2,3-dihydro-1,4-benzoxazepin-4(5H)-yl]carbonyl}-4-[4-(trifluoromethyl)phenyl]piperidin-4-ol]"
5,not active,"Cc1nc2cc(-c3ccc4c(c3)CN(C(=O)N3CC[C@@](C)(O)C[C@@H]3c3ccccc3)CCO4)ccc2[nH]1 (racemic) [compound 133, (±)-(2R,4R)-4-methyl-1-{[7-(2-methyl-1H-benzimidazol-5-yl)-2,3-dihydro-1,4-benzoxazepin-4(5H)-yl]carbonyl}-2-phenylpiperidin-4-ol]"
6,not active,"CCCCN(Cc1ccccc1)C(=O)N1CCOc2ccc(-c3ccc4nc(C)[nH]c4c3)cc2C1 [compound 173, N-butyl-7-(2-methyl-1H-benzimidazol-6-yl)-N-(phenylmethyl)-2,3-dihydro-1,4-benzoxazepine-4(5H)-carboxamide]"
7,not active,"CCC1CC2(CCN(C(=O)N3CCOc4ccc(-c5ccc6nc(C)[nH]c6c5)cc4C3)CC2)CC(=O)N1 (stereo not shown) [compound 155, 4-ethyl-9-{[7-(2-methyl-1H-benzimidazol-6-yl)-2,3-dihydro-1,4-benzoxazepin-4(5H)-yl]carbonyl}-3,9-diazaspiro[5.5]undecan-2-one]"
8,not active,"Cc1nc2ccc(-c3ccc4c(c3)CN(C(=O)NC3[C@H]5C[C@@H]6C[C@@H](C[C@H]3C6)C5)CCO4)cc2[nH]1 (stereo partly drawn) [compound 149, 7-(2-methyl-1H-benzimidazol-6-yl)-N-[(1r,3r,5R,7R)-tricyclo[3.3.1.1~3,7~]dec-2-yl]-2,3-dihydro-1,4-benzoxazepine-4(5H)-carboxamide]"
9,not active,"Nc1cnc(-c2ccc3c(c2)CN(C(=O)N2CCC(C(F)(F)F)CC2)CCO3)cn1 [compound 6, 5-(4-{[4-(trifluoromethyl)piperidin-1-yl]carbonyl}-2,3,4,5-tetrahydro-1,4-benzoxazepin-7-yl)pyrazin-2-amine]"

# Molecular target: mTOR/GbL/Raptor (mTORC1) (Homo sapiens, UniProt P42345)
# Experiment: mTOR/GbL/Raptor (mTORC1) ELISA assay
# Assay type: biochemical
# Details: 0.2 nM mTORC1, 10 μM ATP, 50 nM 4E-BP1
# Procedure: The measurement of mTORC1 enzyme activity was performed in an ELISA assay format following the phosphorylation of 4E-BP1 protein. All experiments were performed in the 384-well format. Generally, 0.5 μL DMSO containing varying concentrations of the test compound was mixed with 15 μL enzyme solution. Kinase reactions were initiated with the addition of 15 μL of substrates-containing solution. The assay conditions were as follows; 0.2 nM mTORC1, 10 μM ATP and 50 nM NHis-tagged 4E-BP1 in 20 mM Hepes, pH 7.2, 1 mM DTT, 50 mM NaCl, 10 mM MnCl2, 0.02 mg/mL BSA, 0.01% CHAPS, 50 mM β-glycerophosphate. Following an incubation of 120 minutes at ambient temperature, 20 μL of the reaction volume was transferred to a Ni-Chelate-coated 384-well plate. The binding step of the 4E-BP1 protein proceeded for 60 minutes, followed by washing 4 times each with 50 μL of Tris-buffered saline solution (TBS). Anti-phospho-4E-BP1 rabbit-IgG (20 μL, 1:5000) in 5% BSA-TBST (0.2% Tween-20 in TBS) was added and further incubated for 60 minutes. Incubation with a secondary HRP-tagged anti-IgG was similarly performed after washing off the primary antibody (4 washes of 50 μL). Following the final wash step with TBST, 20 μL of SuperSignal ELISA Femto (Pierce Biotechnology) was added and the luminescence measured using an EnVision plate reader.
row,SMILES,IC50 (mTORC1 ELISA)
1,"Cc1nc2ccc(-c3ccc4c(c3)CN(C(=O)N3[C@@H]5CC[C@H]3C[C@@H](CO)C5)CCO4)cc2[nH]1 [compound 112, (8-{[7-(2-methyl-1H-benzimidazol-6-yl)-2,3-dihydro-1,4-benzoxazepin-4(5H)-yl]carbonyl}-8-azabicyclo[3.2.1]oct-3-(endo)-yl)methanol]",not active
2,"Cc1nc2ccc(-c3ccc4c(c3)CN(C(=O)N3CCN(C(=O)c5ccco5)CC3)CCO4)cc2[nH]1 [compound 158, 4-{[4-(furan-2-ylcarbonyl)piperazin-1-yl]carbonyl}-7-(2-methyl-1H-benzimidazol-6-yl)-2,3,4,5-tetrahydro-1,4-benzoxazepine]",not active
3,"Cc1nc2ccc(-c3ccc4c(c3)CN(C(=O)N3CCCCC3c3cc(C(F)(F)F)cc(C(F)(F)F)c3)CCO4)cc2[nH]1 (stereo not shown) [compound 115, 4-({2-[3,5-bis(trifluoromethyl)phenyl]piperidin-1-yl}carbonyl)-7-(2-methyl-1H-benzimidazol-6-yl)-2,3,4,5-tetrahydro-1,4-benzoxazepine]",not active
4,"Cc1nc2ccc(-c3ccc4c(c3)CN(C(=O)N3CCOCC3)CCO4)cc2[nH]1 [compound 132, 7-(2-methyl-1H-benzimidazol-6-yl)-4-(morpholin-4-ylcarbonyl)-2,3,4,5-tetrahydro-1,4-benzoxazepine]",not active

# The next lines start with the values.
row,IC50 (mTORC1 ELISA),SMILES
1,not active,"CCOC(=O)CN(Cc1ccccc1)C(=O)N1CCOc2ccc(-c3ccc4nc(C)[nH]c4c3)cc2C1 [compound 151, ethyl N-{[7-[2-methyl-1H-benzimidazol-6-yl)-2,3-dihydro-1,4-benzoxazepin-4(5H)-yl]carbonyl}-N-(phenylmethyl)glycinate]"
2,not active,"Cc1nc2ccc(-c3ccc4c(c3)CN(C(=O)N3CCC(C5CCNCC5)CC3)CCO4)cc2[nH]1 [compound 71, 1-{[7-(2-methyl-1H-benzimidazol-6-yl)-2,3-dihydro-1,4-benzoxazepin-4(5H)-yl]carbonyl}-4,4′-bipiperidine]"
3,not active,"CC1CCN(C(=O)N2CCOc3ccc(-c4cc(NCc5ccccc5)[nH]n4)cc3C2)CC1 [compound 9, 3-{4-[(4-methylpiperidin-1-yl)carbonyl]-2,3,4,5-tetrahydro-1,4-benzoxazepin-7-yl}-N-(phenylmethyl)-1H-pyrazol-5-amine]"
